Test results as given in patent US20190255078A1, “TOPICAL COMPOSITIONS WITH STABLE SOLUBILIZED SELECTIVE RETINOIDS AND/OR TETRACYCLINE-CLASS ANTIBIOTICS” (BioPharmX, Inc., priority 2018, published 2019).

Assays:
[1] = cited from earlier work
[2] = tested on: antibiotic-resistant P. acnes; conditions: clinical isolates of antibiotic-resistant P. acnes; cited from earlier work
[3] = Stability of tazarotene in solution with antioxidants and/or magnesium chloride (Example 3A); type: physicochemical
Experimental: Retinoids can undergo chemical degradation in solutions due to oxidation. However, many antioxidants are not effective in sufficiently stabilizing retinoids in a pharmaceutical composition. A study was performed in which samples consisting of 0.05% (w/w) tazarotene dissolved in 79.15% (w/w) ethanol (anhydrous), 0.6% hydroxypropyl cellulose HF (KLUCEL HF), 20% propylene glycol, and 0.20% (w/w) of an antioxidant were stored in a sealed amber glass container for 8 weeks at 40° C. For the tested composition with no antioxidant, the additional 0.20% was made up with ethanol (anhydrous).
Only one of the antioxidants improved the stability of tazarotene: propyl gallete, reducing the degradation from 5% to 1% over the 8-week period. In contrast, the antioxidant ascorbic acid increased the degradation from 5% to approximately 50% over the 8-week period.
Similarly, divalent cations such as magnesium, are also ineffective in stabilizing tazarotene. A mixture comprising ethanol, 0.6% magnesium chloride, and 0.05% tazarotene was stored in a sealed amber glass container for 13 weeks at 40° C.
A mixture comprising ethanol, 0.6% magnesium chloride, 0.2% sodium metabisulfite, and 0.05% tazarotene was stored in a sealed amber glass container for 13 weeks at 40° C. The tazarotene degraded by 3% over the 13-week period in comparison to 5% degradation for a mixture comprising ethanol and 0.05% tazarotene (and without magnesium chloride or an antioxidant) over the same period. […] Measurements for an additional composition comprising ethanol, 0.20% sodium metabisulfite, and 0.05% tazarotene (without the presence of magnesium chloride) were taken at 0, 1, 2, 4, and 8 weeks. Only the data at 0 and 8 weeks are presented in FIG. 3A for this composition. Data for this composition was not captured at 13 weeks.

[4] = Stability at 40° C. of single and dual API compositions of Table 13-1 (Example 10); conditions: 6 months
Experimental: The exemplary compositions comprised tazarotene, minocycline, or a combination thereof. Each composition was stored at room temperature for 2 and 5 weeks in a sealed amber glass container at 40° C.

[5] = Room temperature stability of tazarotene and minocycline in single and combination compositions (Example 5); type: physicochemical; conditions: 18 months
[6] = Solubility of tazarotene in solvents and solvent mixtures (Example 2); type: physicochemical
Excerpt: Tazarotene is known to have low solubility in many traditional solvent systems. […] However, compositions with ethanol as the only solvent are typically irritating to the skin, have a pungent smell, and leave the skin feeling dry. […] It has been discovered that that mixtures of ethanol and carboxylate esters have higher solubility of tazarotene than would be expected from mixtures of the components individually.
Tazarotene is desirably used in compositions at a concentration of 0.01% to 0.20% (w/w). […].
As shown in Table 5 and FIG. 2, the tazarotene solubility in selected binary and tertiary mixtures was even higher than the solubility of tazarotene in ethanol alone. […] Even small amounts of carboxylate esters can have unexpectedly large effects.
Thus, the tazarotene in selected ranges of binary mixtures was higher than the solubility of tazarotene in the individual components of the solvent mixture.

[7] = Stability of tazarotene in solution with antioxidants and/or magnesium chloride (Example 3A); type: physicochemical; conditions: ethanol (anhydrous), sodium metabisulfite, sealed amber glass

COc1ccc(-c2ccc3cc(C(=O)O)ccc3c2)cc1C12CC3CC(CC(C3)C1)C2 [Adapalene, 6-[3-(1-adamantyl)-4-methoxy-phenyl]naphthalene-2-carboxylic acid]
log P [1]: approximately 6

C[C@H]1c2cccc(O)c2C(=O)C2=C(O)[C@]3(O)C(=O)C(C(N)=O)=C(O)[C@@H](N(C)C)[C@@H]3[C@@H](O)[C@@H]21 [doxycycline, (4S,4aR,5S,5aR,6R,12aS)-4-(dimethylamino)-3,5,10,12,12a-pentahydroxy-6-methyl-1,11-dioxo-1,4,4a,5,5a,6,11,12a-octahydrotetracene-2-carboxamide]
average MIC90 [2]: 8 µg/mL | Log P ([1]; free base form): about −0.02

CC[C@H]1OC(=O)[C@H](C)[C@@H](O[C@H]2C[C@@](C)(OC)[C@@H](O)[C@H](C)O2)[C@H](C)[C@@H](O[C@@H]2O[C@H](C)C[C@H](N(C)C)[C@H]2O)[C@](C)(O)C[C@@H](C)C(=O)[C@H](C)[C@@H](O)[C@]1(C)O [erythromycin]
average MIC90 [2]: ~512 µg/mL

CCOC(=O)c1ccc(C#Cc2ccc3c(c2)C(C)(C)CCS3)nc1 [tazarotene, ethyl 6-[2-(4,4-dimethyl-2,3-dihydrothiochromen-6-yl)ethynyl]pyridine-3-carboxylate]
Reduction in Tazarotene concentration after 8 weeks at 40° C. (% degradation relative to baseline tazarotene) ([3]; 0.05% tazarotene in ethanol/20% propylene glycol/0.6% HPC, antioxidant: none): 5% | Reduction in Tazarotene concentration after 8 weeks at 40° C. (% degradation relative to baseline tazarotene) ([3]; antioxidant: 0.20% BHT): 5% | Reduction in Tazarotene concentration after 8 weeks at 40° C. (% degradation relative to baseline tazarotene) ([3]; antioxidant: 0.20% Dl-Alpha Tocopherol): 5% | Reduction in Tazarotene concentration after 8 weeks at 40° C. (% degradation relative to baseline tazarotene) ([3]; antioxidant: 0.20% propyl gallete): 1% | Reduction in Tazarotene concentration after 8 weeks at 40° C. (% degradation relative to baseline tazarotene) ([3]; antioxidant: 0.20% sodium metabisulfite (SMBS)): 8% | Reduction in Tazarotene concentration after 8 weeks at 40° C. (% degradation relative to baseline tazarotene) ([3]; antioxidant: 0.20% sodium nitrate): 10% | Reduction in Tazarotene concentration after 8 weeks at 40° C. (% degradation relative to baseline tazarotene) ([3]; antioxidant: 0.20% sodium sulfite): 10% | Reduction in Tazarotene concentration after 8 weeks at 40° C. (% degradation relative to baseline tazarotene) ([3]; antioxidant: 0.20% tocopherol): 5% | tazarotene degradation over 13 weeks at 40° C. ([3]; ethanol and 0.05% tazarotene, without magnesium chloride or antioxidant): 5% | tazarotene degradation over 13 weeks at 40° C. ([3]; ethanol, 0.6% magnesium chloride, 0.05% tazarotene, sealed amber glass): 13% | tazarotene degradation over 13 weeks at 40° C. ([3]; ethanol, 0.6% magnesium chloride, 0.2% sodium metabisulfite, 0.05% tazarotene): 3% | stability when added in combination versus alone ([4]; compositions of Table 13-1): more stable | stability in single API and dual API compositions ([4]; compositions of Table 13-1 (FIGS. 8A-8B)): stable | stability when added in combination versus each drug alone ([5]; compositions of Table 9): more stable | stability in compositions of Table 9 ([5]; sealed amber glass): stable after 18 months | tazarotene solubility relative to solubility in ester alone ([6]; ethanol and at least one carboxylate ester, binary and tertiary mixtures): 2-5 times | TAZAROTENE SOLUBILITY ([6]; ethanol and diisopropyl adipate 1:1 (W/W)): 39.0 mg/g | TAZAROTENE SOLUBILITY ([6]; ethanol and diisopropyl adipate 9:1 (W/W)): 23.3 mg/g | TAZAROTENE SOLUBILITY ([6]; ethanol and dimethyl succinate 20:80 (W/w)): 109.42 mg/g | TAZAROTENE SOLUBILITY ([6]; ethanol and dimethyl succinate 40:60 (W/w)): 103.65 mg/g | TAZAROTENE SOLUBILITY ([6]; ethanol and dimethyl succinate 60:40 (W/w)): 67.18 mg/g | TAZAROTENE SOLUBILITY ([6]; ethanol and dimethyl succinate 80:20 (W/w)): 45.30 mg/g | TAZAROTENE SOLUBILITY ([6]; ethanol and isopropyl myristate 1:1 (W/W)): 37.8 mg/g | TAZAROTENE SOLUBILITY ([6]; ethanol and isopropyl myristate 9:1 (W/W)): 34.8 mg/g | TAZAROTENE SOLUBILITY ([6]; ethanol and medium chain triglyceride 1:1 (W/W)): 38.6 mg/g | TAZAROTENE SOLUBILITY ([6]; ethanol and medium chain triglyceride 9:1 (W/W)): 23.5 mg/g | TAZAROTENE SOLUBILITY ([6]; ethanol and propyl acetate 20:80 (W/w)): 179.99 mg/g | TAZAROTENE SOLUBILITY ([6]; ethanol and propyl acetate 40:60 (W/w)): 139.85 mg/g | TAZAROTENE SOLUBILITY ([6]; ethanol and propyl acetate 60:40 (W/w)): 80.16 mg/g | TAZAROTENE SOLUBILITY ([6]; ethanol and propyl acetate 80:20 (W/w)): 44.12 mg/g | TAZAROTENE SOLUBILITY ([6]; ethanol and propylene glycol 1:1 (W/W)): 10.3 mg/g | TAZAROTENE SOLUBILITY ([6]; ethanol and propylene glycol 4:1 (W/W)): 22.3 mg/g | TAZAROTENE SOLUBILITY ([6]; ethanol, glycerol, and isopropyl myristate 7:2:1 (W/W)): 30.3 mg/g | TAZAROTENE SOLUBILITY ([6]; ethanol, propylene glycol, and diisopropyl adipate 7:2:1 (W/W)): 24.9 mg/g | TAZAROTENE SOLUBILITY ([6]; ethanol, propylene glycol, and dimethyl succinate 7:2:1 (W/W)): 30.1 mg/g | TAZAROTENE SOLUBILITY ([6]; ethanol, propylene glycol, and isopropyl myristate 7:2:1 (W/W)): 32.3 mg/g | TAZAROTENE SOLUBILITY ([6]; ethanol, propylene glycol, and medium chain triglycerides 7:2:1 (W/W)): 24.4 mg/g | TAZAROTENE SOLUBILITY ([6]; ethanol, propylene glycol, and propyl acetate 7:2:1 (W/W)): 29.1 mg/g | TAZAROTENE SOLUBILITY ([6]; in diisopropyl adipate): 1.21 mg/g | TAZAROTENE SOLUBILITY ([6]; in dimethyl succinate): 63.18 mg/g | TAZAROTENE SOLUBILITY ([6]; in isopropyl myristate): 0.75 mg/g | TAZAROTENE SOLUBILITY ([6]; in medium chain triglycerides): 0.16 mg/g | TAZAROTENE SOLUBILITY ([6]; in propyl acetate): 138.04 mg/g | TAZAROTENE SOLUBILITY ([6]; in propylene glycol): 0.0054 mg/g | TAZAROTENE SOLUBILITY ([6]; propylene glycol and diisopropyl adipate 2:0 (W/W)): 5.6 mg/g | TAZAROTENE SOLUBILITY ([6]; propylene glycol and dimethyl succinate 2:1 (W/W)): 1.27 mg/g | TAZAROTENE SOLUBILITY ([6]; propylene glycol and isopropyl myristate 2:1 (W/W)): 6.0 mg/g | TAZAROTENE SOLUBILITY ([6]; propylene glycol and propyl acetate 2:1 (W/W)): 1.55 mg/g | solubility for tazarotene in combined solvent systems ([6]; selected ratios of carboxylate esters to monohydric aliphatic alcohol): at least 25 mg/g | tazarotene degradation when stored for 12 months at room temperature [7]: less than 7% | log P [1]: ~4.3
